Measured values as given in patent publication US20220133642A1, “TOPICAL FILM-FORMING SPRAY” (GRACE THERAPEUTICS INC., priority 2015, published 2022).
Structures can show the parent of a compound that is named as a salt.

Experiment: Solubility study for drug saturation in spray vehicle
Assay type: physicochemical
Conditions: 16 mg of drug; after standing
Procedure: Solubility studies to find out concentration at which the drug is present at saturation levels were performed as follows: The drug (bupivacaine hydrochloride 2, 4, 8, 10, 12 & 16 mg) was added to, propylene glycol, oleyl alcohol and menthol in ethanol under stirring and mixing till clear solution is formed. The film-forming polymer in the clear drug solution was added while stirring till polymer dissolves or hydrates completely.

CCCCN1CCCCC1C(=O)Nc1c(C)cccc1C (stereo not shown) [bupivacaine hydrochloride]
appearance of drug solution: precipitated out from clear solution after standing
